Where a SMILES comes first, the peptide text is derived from it. Bridges are numbered along the chain shown (N, C = ends). [ ]: non-standard residue; d: D form. Oic = O=C(O)[C@@H]1C[C@@H]2CCCC[C@@H]2N1; tBuAla = CC(C)(C)C[C@H](N)C(=O)O; Pen = CC(C)(S)[C@H](N)C(=O)O; NMeC = CN[C@@H](CS)C(=O)O; Dab = NCC[C@H](N)C(=O)O; Dap = NC[C@H](N)C(=O)O; PEG2 = NCCOCCOCCC(=O)O; Ahx = NCCCCCC(=O)O; Sar = CNCC(=O)O
How the values were obtained:
human MASP1 = human MASP1 (Homo sapiens (Human), UniProt P48740); experiment: Biochemical human MASP1 assay (FRET substrate); details: Average IC50; recombinant human MASP1; read-out: human MASP1 IC50
Sequence of human MASP1 (P48740 other isoform, or with tags, fused parts or gaps): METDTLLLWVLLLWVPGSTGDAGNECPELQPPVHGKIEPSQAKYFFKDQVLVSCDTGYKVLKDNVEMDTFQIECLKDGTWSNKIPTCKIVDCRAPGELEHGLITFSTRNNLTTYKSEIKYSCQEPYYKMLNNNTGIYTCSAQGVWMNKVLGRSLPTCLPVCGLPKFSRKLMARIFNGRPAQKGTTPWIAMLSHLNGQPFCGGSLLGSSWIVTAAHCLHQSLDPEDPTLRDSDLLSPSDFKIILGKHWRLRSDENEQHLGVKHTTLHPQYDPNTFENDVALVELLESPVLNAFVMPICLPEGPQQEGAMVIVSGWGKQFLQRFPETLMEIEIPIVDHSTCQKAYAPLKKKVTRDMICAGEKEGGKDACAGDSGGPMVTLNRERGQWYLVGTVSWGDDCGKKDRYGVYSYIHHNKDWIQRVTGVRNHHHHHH
Excerpt: A truncated cDNA sequence of human MASP1 encoding the fragment corresponding to the amino acids 297-699 with a C-terminal His Tag and N-terminal Ig-kappa secretion signal (SEQ ID No: 2) was subcloned into the mammalian expression vector pcDNA3.1 (Invitrogen).
The MASP1 or MASP2 expression vectors were transfected into the HEK293 (ATCC No. CRL-1573) cell line using Lipofectamine LTX® Reagent (Thermo-Fischer), as described by the manufacturer. The mature form of the recombinant human MASP1 and MASP2 proteases were secreted into the culture medium. The MASP1 and MASP2 proteins were purified from the conditioned media by affinity chromatography on Ni-NTA Superflow resin (Qiagen) as described by the manufacturer.
2.2 Biochemical Human MASP1 Assay
Recombinant human MASP1 enzyme produced in the HEK 293 cells was diluted in the reaction buffer (50 mM HEPES pH 8,0; 100 mM NaCl; 0,01% CHAPS; 0.5 mM Gluthathione) to the concentration of 20 nM and 25 μl was transferred into each single well of 384-well white microtiter plate (Greiner Bio One 781075). 1 μl of the inhibitor compound solution (dissolved in DMSO, at the corresponding concentration) or pure DMSO as a control was added to the same wells. The enzymatic reaction was initiated by addition of 25 μl of 20 μM solution of the FRET substrate ABZ-[…]-Lys (Dnp)-NH2; (ABZ-2-aminobenzoyl; DNP 2,4-dinitrophenyl; custom synthesis by Jerini Peptide Technologies, Berlin) in the reaction buffer. The microtiter plate was incubated for 60-120 min at the temperature of 32 C. The increase of fluorescence intensity was measured in appropriate fluorescence plate reader (e.g. TECAN Ultra) using excitation wavelength of 320 nm and emission wavelength of 420 nm. IC50 values were calculated from percentage of inhibition of human MASP1 activity as a function of test compound concentration.

human MASP2 = human MASP2 (Homo sapiens (Human), UniProt O00187); experiment: Biochemical human MASP2 assay (FRET substrate); details: Average IC50; recombinant human MASP2; read-out: human MASP2 IC50
Sequence of human MASP2 (O00187 other isoform, or with tags, fused parts or gaps): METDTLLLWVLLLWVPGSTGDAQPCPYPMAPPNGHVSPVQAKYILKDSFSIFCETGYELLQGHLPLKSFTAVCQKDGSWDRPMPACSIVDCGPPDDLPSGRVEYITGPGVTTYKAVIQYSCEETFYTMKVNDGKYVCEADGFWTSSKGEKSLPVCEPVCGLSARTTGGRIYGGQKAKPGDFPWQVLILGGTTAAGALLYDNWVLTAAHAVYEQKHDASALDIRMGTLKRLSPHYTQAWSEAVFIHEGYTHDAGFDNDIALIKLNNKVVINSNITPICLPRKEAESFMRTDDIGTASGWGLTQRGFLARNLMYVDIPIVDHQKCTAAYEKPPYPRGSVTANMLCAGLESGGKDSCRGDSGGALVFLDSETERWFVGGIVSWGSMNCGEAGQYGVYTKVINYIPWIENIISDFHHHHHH
Excerpt: The MASP1 or MASP2 expression vectors were transfected into the HEK293 (ATCC No. CRL-1573) cell line using Lipofectamine LTX® Reagent (Thermo-Fischer), as described by the manufacturer. The mature form of the recombinant human MASP1 and M[…] were secreted into the culture medium. The MASP1 and M[…] were purified from the conditioned media by affinity chromatography on Ni-NTA Superflow resin (Qiagen) as described by the manufacturer. 2.3 Biochemical Human MASP2 Assay […] The enzymatic reaction was initiated by addition of 25 μl of 60 μM solution of the FRET substrate DABCYL-[…]; […] The microtiter plate was incubated for 60-120 min at the temperature of 32 C. The increase of fluorescence intensity was measured in appropriate fluorescence plate reader (e.g. TECAN Ultra) using excitation wavelength of 340 nm and emission wavelength of 490 nm. IC50 values were calculated from percentage of inhibition of human MASP2 activity as a function of test compound concentration.

CC[C@H](C)[C@@H]1NC(=O)CNC(=O)CCCCCNC(=O)CC[C@@H](C(N)=O)NC(=O)[C@@H]2CCCN2C(=O)[C@H]([C@@H](C)CC)NC(=O)[C@H]2NC(=O)[C@H]([C@@H](C)CC)NC(=O)[C@@H]3C[C@@H]4CCCC[C@@H]4N3C(=O)[C@@H]3CCCN3C(=O)[C@H](CC(C)C)NC(=O)[C@H](CO)NC(=O)[C@H](CCCNC(=N)N)NC(=O)[C@H](CO)NC(=O)[C@H](CSSC2(C)C)NC1=O [Example 83] ([Ahx]GICSRSLP[Oic]I[Pen]IPE-NH2; disulfide 4-12; lactam N-15)
IC50 (human MASP1): 18 nM | IC50 (human MASP2): 91 nM

CC[C@H](C)[C@@H]1NC(=O)CNC(=O)CNC(=O)[C@@H](N)CNC(=O)[C@H](CC(=O)O)NC(=O)[C@@H]2CCCN2C(=O)[C@H]([C@@H](C)CC)NC(=O)[C@@H]2CSSC[C@H](NC1=O)C(=O)N[C@@H](CO)C(=O)N[C@@H](CCCNC(=N)N)C(=O)N[C@@H](CO)C(=O)N[C@@H](CC(C)C)C(=O)N1CCC[C@H]1C(=O)N1CCC[C@H]1C(=O)N[C@@H]([C@@H](C)CC)C(=O)N2 [Example 20] (H-[Dap]GGICSRSLPPICIPD; lactam 1-C; disulfide 5-13)
IC50 (human MASP1): 55 nM | IC50 (human MASP2): 110 nM

CC[C@H](C)[C@@H]1NC(=O)[C@H](C)NC(=O)CNC(=O)[C@H](C)NC(=O)[C@H](CC(=O)O)NC(=O)[C@@H]2CCCN2C(=O)[C@H]([C@@H](C)CC)NC(=O)[C@H]2NC(=O)[C@H]([C@@H](C)CC)NC(=O)[C@@H]3CCCN3C(=O)[C@@H]3CCCN3C(=O)[C@H](CC(C)(C)C)NC(=O)[C@H](CO)NC(=O)[C@H](CCCNC(=N)N)NC(=O)[C@H](CO)NC(=O)[C@H](CSSC2(C)C)NC1=O [Example 26] (cyclo(AGAICSRS[tBuAla]PPI[Pen]IPD); disulfide 5-13)
IC50 (human MASP1): 12 nM | IC50 (human MASP2): 170 nM

CC[C@H](C)[C@@H]1NC(=O)[C@H](C)NC(=O)CCOCCOCCNC(=O)[C@H](CC(=O)O)NC(=O)[C@@H]2CCCN2C(=O)[C@H]([C@@H](C)CC)NC(=O)[C@H]2NC(=O)[C@H]([C@@H](C)CC)NC(=O)[C@@H]3CCCN3C(=O)[C@@H]3CCCN3C(=O)[C@H](CC(C)(C)C)NC(=O)[C@H](CO)NC(=O)[C@H](CCCNC(=N)N)NC(=O)[C@H](CO)NC(=O)[C@H](CSSC2(C)C)NC1=O [Example 34] (cyclo(AICSRS[tBuAla]PPI[Pen]IPD[PEG2]); disulfide 3-11)
IC50 (human MASP1): 11 nM | IC50 (human MASP2): 98 nM

CC[C@H](C)[C@@H]1NC(=O)[C@H](C)NC(=O)CCCCCNC(=O)[C@@H]2CCCN2C(=O)[C@H]([C@@H](C)CC)NC(=O)[C@@H]2CSSC[C@H](NC1=O)C(=O)N[C@@H](CO)C(=O)N[C@@H](CCCNC(=N)N)C(=O)N[C@@H](CO)C(=O)N[C@@H](CC(C)C)C(=O)N1CCC[C@H]1C(=O)N1[C@@H](C[C@@H]3CCCC[C@@H]31)C(=O)N[C@@H]([C@@H](C)CC)C(=O)N2 [Example 25] (cyclo(AICSRSLP[Oic]ICIP[Ahx]); disulfide 3-11)
IC50 (human MASP1): 60 nM | IC50 (human MASP2): 610 nM

CC[C@H](C)[C@@H]1NC(=O)[C@H](C)NC(=O)CN(C)C(=O)CCCCCNC(=O)CC[C@@H](C(N)=O)NC(=O)[C@@H]2CCCN2C(=O)[C@H]([C@@H](C)CC)NC(=O)[C@H]2NC(=O)[C@H]([C@@H](C)CC)NC(=O)[C@@H]3C[C@@H]4CCCC[C@@H]4N3C(=O)[C@@H]3CCCN3C(=O)[C@H](CC(C)C)NC(=O)[C@H](CO)NC(=O)[C@H](CCCNC(=N)N)NC(=O)[C@H](CO)NC(=O)[C@H](CSSC2(C)C)NC1=O [Example 77] ([Ahx][Sar]AICSRSLP[Oic]I[Pen]IPE-NH2; disulfide 5-13; lactam N-16)
IC50 (human MASP1): 11 nM | IC50 (human MASP2): 210 nM

CC[C@H](C)[C@@H]1NC(=O)[C@H](CCN)NC(=O)[C@H](CN)NC(=O)[C@H]([C@@H](C)CC)NC(=O)[C@H]2NC(=O)[C@H]([C@@H](C)CC)NC(=O)[C@@H]3CCCN3C(=O)[C@@H]3CCCN3C(=O)[C@H](CC(C)(C)C)NC(=O)[C@H](CO)NC(=O)[C@H](CCCNC(=N)N)NC(=O)[C@H](CO)NC(=O)[C@H](CSSC2(C)C)NC1=O [Example 73] (cyclo(CSRS[tBuAla]PPI[Pen]I[Dap][Dab]I); disulfide 1-9)
IC50 (human MASP1): 42 nM | IC50 (human MASP2): 430 nM

CC[C@H](C)[C@@H]1NC(=O)CCCCCNC(=O)[C@H]([C@@H](C)CC)NC(=O)[C@@H]2CSSC[C@H](NC1=O)C(=O)N[C@@H](CO)C(=O)N[C@@H](CCCNC(=N)N)C(=O)N[C@@H](CO)C(=O)N[C@@H](CC(C)C)C(=O)N1CCC[C@H]1C(=O)N1[C@@H](C[C@@H]3CCCC[C@@H]31)C(=O)N[C@@H]([C@@H](C)CC)C(=O)N2 [Example 95, N-{3-[(6S,9S,12S,15S,18R,21S,31S,34R,37S,39aS,40aS,44aS,46aS)-21,31,37-tri[(2S)-butan-2-yl]-9,15-bis(hydroxymethyl)-6-(2-methylpropyl)-5,8,11,14,17,20,23,30,33,36,39,46-dodecaoxohexatetracontahydro-1H,5H-18,34-(methanodithiomethano)pyrrolo[2′,1′:15,16][1,4,7,10,13,16,19,22,25,28,31,34]dodecaazacyclotetracontino[13,12-a]indol-12-yl]propyl}guanidine] (cyclo([Ahx]ICSRSLP[Oic]ICI); disulfide 3-11)
IC50 (human MASP1): 100 nM | IC50 (human MASP2): 110 nM

CC[C@H](C)[C@@H]1NC(=O)CNC(=O)CN(C)C(=O)CCCCCNC(=O)CC[C@@H](C(N)=O)NC(=O)[C@@H]2CCCN2C(=O)[C@H]([C@@H](C)CC)NC(=O)[C@H]2NC(=O)[C@H]([C@@H](C)CC)NC(=O)[C@@H]3C[C@@H]4CCCC[C@@H]4N3C(=O)[C@@H]3CCCN3C(=O)[C@H](CC(C)C)NC(=O)[C@H](CO)NC(=O)[C@H](CCCNC(=N)N)NC(=O)[C@H](CO)NC(=O)[C@H](CSSC2(C)C)NC1=O [Example 76] ([Ahx][Sar]GICSRSLP[Oic]I[Pen]IPE-NH2; disulfide 5-13; lactam N-16)
IC50 (human MASP1): 9.7 nM | IC50 (human MASP2): 180 nM

CC[C@H](C)[C@@H]1NC(=O)[C@H](C)NC(=O)CNC(=O)CCCCCNC(=O)CC[C@@H](C(N)=O)NC(=O)[C@@H]2CCCN2C(=O)[C@H]([C@@H](C)CC)NC(=O)[C@H]2NC(=O)[C@H]([C@@H](C)CC)NC(=O)[C@@H]3C[C@@H]4CCCC[C@@H]4N3C(=O)[C@@H]3CCCN3C(=O)[C@H](CC(C)C)NC(=O)[C@H](CO)NC(=O)[C@H](CCCNC(=N)N)NC(=O)[C@H](CO)NC(=O)[C@H](CSSC2(C)C)NC1=O [Example 82] ([Ahx]GAICSRSLP[Oic]I[Pen]IPE-NH2; disulfide 5-13; lactam N-16)
IC50 (human MASP1): 69 nM | IC50 (human MASP2): 700 nM

CC[C@H](C)[C@@H]1NC(=O)[C@H](C)NC(=O)CNC(=O)[C@H](C)NC(=O)[C@H](CC(=O)O)NC(=O)[C@@H]2CCCN2C(=O)[C@H]([C@@H](C)CC)NC(=O)[C@@H]2CSSC[C@H](NC1=O)C(=O)N[C@@H](CO)C(=O)N[C@@H](CCCNC(=N)N)C(=O)N[C@@H](CO)C(=O)N[C@@H](CC(C)(C)C)C(=O)N1CCC[C@H]1C(=O)N1CCC[C@H]1C(=O)N[C@@H]([C@@H](C)CC)C(=O)N2C [Example 31] (cyclo(AGAICSRS[tBuAla]PPI[NMeC]IPD); disulfide 5-13)
IC50 (human MASP1): 16 nM | IC50 (human MASP2): 130 nM

CC[C@H](C)[C@@H]1NC(=O)CNC(=O)[C@@H](N)CCC(=O)NCCCC[C@@H](C(N)=O)NC(=O)[C@H](CC(=O)O)NC(=O)[C@@H]2CCCN2C(=O)[C@H]([C@@H](C)CC)NC(=O)[C@H]2NC(=O)[C@H]([C@@H](C)CC)NC(=O)[C@@H]3C[C@@H]4CCCC[C@@H]4N3C(=O)[C@@H]3CCCN3C(=O)[C@H](CC(C)C)NC(=O)[C@H](CO)NC(=O)[C@H](CCCNC(=N)N)NC(=O)[C@H](CO)NC(=O)[C@H](CSSC2(C)C)NC1=O [Example 91] (H-EGICSRSLP[Oic]I[Pen]IPDK-NH2; lactam 1-16; disulfide 4-12)
IC50 (human MASP1): 29 nM | IC50 (human MASP2): 71 nM

CC[C@H](C)[C@@H]1NC(=O)[C@@H](C)NC(=O)CCCCCNC(=O)CC[C@@H](C(N)=O)NC(=O)[C@@H]2CCCN2C(=O)[C@H]([C@@H](C)CC)NC(=O)[C@H]2NC(=O)[C@H]([C@@H](C)CC)NC(=O)[C@@H]3C[C@@H]4CCCC[C@@H]4N3C(=O)[C@@H]3CCCN3C(=O)[C@H](CC(C)C)NC(=O)[C@H](CO)NC(=O)[C@H](CCCNC(=N)N)NC(=O)[C@H](CO)NC(=O)[C@H](CSSC2(C)C)NC1=O [Example 79] ([Ahx][dA]ICSRSLP[Oic]I[Pen]IPE-NH2; disulfide 4-12; lactam N-15)
IC50 (human MASP1): 22 nM | IC50 (human MASP2): 45 nM

Reference: patent US20240010684A1, “MASP INHIBITORY COMPOUNDS AND USES THEREOF” (BAYER AKTIENGESELLSCHAFT, priority 2020, published 2024)
